In one series the target is Substance-P receptor (Homo sapiens, UniProt P25103). As to the kind of experiment: Displacement of [3H]substance P from human neurokinin NK1 receptor expressed in CHO cell. It counts as cell-based.
The target of another series is T1, Neuromedin-K receptor (Homo sapiens, UniProt P29371).
T1 sequence (P29371 whole entry): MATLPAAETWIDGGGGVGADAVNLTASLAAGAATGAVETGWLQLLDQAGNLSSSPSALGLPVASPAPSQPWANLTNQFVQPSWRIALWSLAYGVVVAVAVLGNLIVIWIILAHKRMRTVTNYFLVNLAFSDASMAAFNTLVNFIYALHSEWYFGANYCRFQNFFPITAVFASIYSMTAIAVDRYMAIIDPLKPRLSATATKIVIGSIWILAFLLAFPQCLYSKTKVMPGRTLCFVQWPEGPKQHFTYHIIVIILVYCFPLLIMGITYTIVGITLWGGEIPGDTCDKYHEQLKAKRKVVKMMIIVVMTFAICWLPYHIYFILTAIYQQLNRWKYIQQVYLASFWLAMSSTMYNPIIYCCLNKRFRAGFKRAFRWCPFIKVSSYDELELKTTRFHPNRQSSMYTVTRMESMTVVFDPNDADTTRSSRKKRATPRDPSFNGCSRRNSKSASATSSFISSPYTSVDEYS
As to the kind of experiment: Displacement of [3H]SR142801 from human neurokinin NK3 receptor expressed in HEK293-EBNA cells. Type of series: cell-based. On the technique in general: Loss of bound radioactivity is the signal in a displacement assay; it reports binding, not function.

For series [1], the system named is Gerbillinae. Briefly: Antipsychotic activity gerbils assessed as reversal of senktide-induced locomotor activity at 100 mg/kg, po administered before senktide challenge. Type of series: functional, organism-based. On the set-up: dose 100 mg/kg.
For series [2], the system named is Gerbillinae. Briefly: Antipsychotic activity gerbils assessed as reversal of senktide-induced locomotor activity at 30 mg/kg, po administered before senktide challenge. Type of series: functional, organism-based. Details: dose 30 mg/kg.
The nature of series [3]: Aqueous solubility of the compound. It counts as physicochemical.
The nature of series [4]: Ratio of drug level in brain to plasma in gerbils at 30 mg/kg, po. It counts as ADME, organism-based. On the set-up: dose 30 mg/kg, route oral. Conditions: gerbillinae, read-out: BPR.
Series [5] can be described thus: Lipophilicity, log D of the compound. It counts as physicochemical. Conditions: octanol/water.

Values after ≈ are worked out from the molar mass of the structure shown. Active and inactive are the calls of the source. No cut-off for these calls is given here.

Sequence of Substance-P receptor (P25103 whole entry): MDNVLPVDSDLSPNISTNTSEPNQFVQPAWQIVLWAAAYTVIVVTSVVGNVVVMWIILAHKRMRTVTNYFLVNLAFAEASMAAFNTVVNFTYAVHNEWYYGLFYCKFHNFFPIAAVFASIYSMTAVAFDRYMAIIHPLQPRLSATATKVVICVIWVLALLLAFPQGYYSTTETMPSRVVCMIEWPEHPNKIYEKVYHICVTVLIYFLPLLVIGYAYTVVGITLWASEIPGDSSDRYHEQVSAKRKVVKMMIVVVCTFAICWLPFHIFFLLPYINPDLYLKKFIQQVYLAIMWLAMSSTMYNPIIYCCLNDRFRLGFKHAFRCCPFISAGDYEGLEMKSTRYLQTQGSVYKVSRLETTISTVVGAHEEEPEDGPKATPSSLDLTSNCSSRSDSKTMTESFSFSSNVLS

As a reminder, the Ki is the dissociation constant of the complex between target and ligand, obtained from inhibition or displacement. Consider `CN(C(=O)C(C)(C)c1cc(C(F)(F)F)cc(C(F)(F)F)c1)[C@H]1CN(C(=O)NCCO)C[C@@H]1c1ccc(F)cc1` (racemic), for which the Ki at Substance-P receptor amounted to 0.6 nM; on Neuromedin-K receptor (read-out: Ki) it was 298 nM.
For the molecule `CN(Cc1cc(C(F)(F)F)cc(C(F)(F)F)c1)[C@H]1CN(C(=O)N2CCN(S(C)(=O)=O)CC2)C[C@@H]1c1ccccc1` (racemic), the Ki on Neuromedin-K receptor (read-out: Ki) amounted to 1300 nM.
Turning to `CN(C(=O)C(C)(C)c1cc(C(F)(F)F)cc(C(F)(F)F)c1)[C@H]1CN(Cc2ccccc2)C[C@@H]1c1ccc(F)cc1` (racemic), on Neuromedin-K receptor (hek293-ebna), the Ki entry was “Not Active”.
Take `CC(=O)N(C)C1(c2ccccc2)CCN(CCC[C@]2(c3ccc(Cl)c(Cl)c3)CCCN(C(=O)c3ccccc3)C2)CC1`: the result in the series on Gerbillinae [1] was Active.
Consider `CN(C(=O)Cc1cc(C(F)(F)F)cc(C(F)(F)F)c1)[C@H]1CN(C(=O)N2CCN(S(C)(=O)=O)CC2)C[C@@H]1c1ccccc1` (racemic), for which the Ki result at Neuromedin-K receptor (hek293-ebna) is reported as “Not Active”.
For `CN(C(=O)C(C)(C)c1cc(C(F)(F)F)cc(C(F)(F)F)c1)[C@H]1CN(C(=O)N(CCO)CCO)C[C@@H]1c1ccc(F)cc1` (racemic), the Ki is 1.1 nM on Substance-P receptor and 192 nM on Neuromedin-K receptor (read-out: Ki).
Consider `CN(C(=O)c1cc(C(F)(F)F)cc(C(F)(F)F)c1)[C@H]1CN(C(=O)N2CCN(S(C)(=O)=O)CC2)C[C@@H]1c1ccccc1` (racemic), for which the Ki result at Neuromedin-K receptor (hek293-ebna) is given as “Not Active”.
As for `CN(C(=O)C(C)(C)c1cc(C(F)(F)F)cc(C(F)(F)F)c1)[C@H]1CNC[C@@H]1c1ccc(F)cc1` (racemic), the Ki is 0.9 nM at Substance-P receptor and “Not Active” on Neuromedin-K receptor (hek293-ebna).
By solubility is commonly meant how much of the substance goes into solution per volume. The low end stands for little dissolved substance, the high end for much dissolved substance. As usually defined, the logD is the decadic logarithm of the distribution of all forms, ionised or not, between an organic phase and buffer at a given pH. Consider `CN(C)CCN1CCN(C(=O)N2C[C@H](c3ccc(Cl)c(Cl)c3)[C@@H](N(C)Cc3ccc(C(F)(F)F)c(F)c3)C2)CC1`, for which the result in the series with Gerbillinae [2] was Active. Further, the solubility in series [3] was 495 µg/mL (≈ 819 µM). Also, the Kp in series [4] worked out at 1.6. For the same molecule, the logD in series [5] is 2.9.
On to `CN(CC(C)(C)c1cc(C(F)(F)F)cc(C(F)(F)F)c1)[C@H]1CN(C(=O)N2CCN(S(C)(=O)=O)CC2)C[C@@H]1c1ccccc1` (racemic), for which the inhibition constant (Ki) entry at Neuromedin-K receptor (hek293-ebna) is reported as “Not Active”.
`CN(Cc1ccc(C(F)(F)F)c(F)c1)[C@H]1CN(C(=O)N2CCN(S(C)(=O)=O)CC2)C[C@@H]1c1ccc(Cl)c(Cl)c1` (racemic) yielded a solubility in series [3] of under 1 µg/mL. The logD in series [5] is over 4.
On to `CN(C(=O)C(C)(C)c1cc(C(F)(F)F)cc(C(F)(F)F)c1)[C@H]1CN(C(=O)N2CCN(S(C)(=O)=O)CC2)C[C@@H]1c1ccc(F)cc1` (racemic), for which the figures for the Ki at Substance-P receptor and on Neuromedin-K receptor (read-out: Ki) were 2.1 nM and 165 nM, respectively.
For the molecule `CN(CCc1cc(C(F)(F)F)cc(C(F)(F)F)c1)[C@H]1CN(C(=O)N2CCN(S(C)(=O)=O)CC2)C[C@@H]1c1ccccc1` (racemic), on Neuromedin-K receptor (hek293-ebna), the Ki entry is on record as “Not Active”.
As to `CC(=O)N1CCN(C(=O)N2C[C@H](c3ccc(F)cc3)[C@@H](N(C)C(=O)C(C)(C)c3cc(C(F)(F)F)cc(C(F)(F)F)c3)C2)CC1` (racemic), the Ki came out at 1.4 nM at Substance-P receptor and 370 nM at Neuromedin-K receptor (read-out: Ki).
Regarding `CN(C(=O)C(C)(C)c1cc(C(F)(F)F)cc(C(F)(F)F)c1)[C@H]1CN(C(=O)N2CCN(S(C)(=O)=O)CC2)C[C@@H]1c1ccccc1` (racemic), at Neuromedin-K receptor (read-out: Ki), the Ki turned out to be 100 nM.
Consider `CS(=O)(=O)N1CCN(C(=O)N2C[C@H](NC(=O)c3cc(C(F)(F)F)cc(C(F)(F)F)c3)[C@@H](c3ccccc3)C2)CC1` (racemic), for which the Ki entry at Neuromedin-K receptor (hek293-ebna) is reported as “Not Active”.

(Values after ChEMBL document CHEMBL1268836, “Rational design of novel pyrrolidine derivatives as orally active neurokinin-3 receptor antagonists” (Bioorg Med Chem Lett, 2010).)
